Results on four compounds are retold here after patent publication US20050169839A1, “Biomarker for efficacy of appetite suppressant drugs” (priority 2002, published 2005).

What all share (type): in vivo, rat
For one experiment, the system named is plasma AGRP. As to the kind of experiment: Plasma AGRP level (RIA) after 4-day dosing in male DIO rats. The following applies: for AGRP (pg/0.1 mL), mean / AGRP (pg/0.1 mL): plasma; for AGRP (pg/0.1 mL), mean: group mean. The text has this: A human AGRP RIA assay kit (Phoenix Pharmaceuticals, Inc., Belmont, Calif.), a human leptin RIA kit (Linco Research, Inc., St. Charles, Mo.), and a human specific insulin RIA kit (Linco Research, Inc., St. Charles, Mo.), were used to measure AGRP, leptin, and insulin, respectively in human plasma samples. A Phoenix AGRP RIA kit, which contains synthetic human AGRP (aa83-132) as a standard, was also used to measure AGRP level in rat plasma samples. […] Statistical comparison is based on one-way ANOVA, t or paired t test.
(§1) To determine if plasma AGRP level correlates with a subject's intake of MC4R agonists given as appetite suppressants, we measured plasma AGRP level in DIO rats after treatment with specific MC4 agonists. Male DIO rats were treated either with an MC4 agonist (15 mg/kg, po, b.i.d., for 4 days, n=7) or with vehicle (n=7). The specific MC4 agonist used for treatment was (aR)-N,N-bis(4-[(tert-butylamino)carbonyl]-4-cyclohexyl 1-{4-fluoro-N-[(2-methyl-2-azabicyclo[2.2.1]hept-6-yl)carbonyl]-D-phenylalanyl}piperidin-2-yl)-4-fluoro-N-[(2-methyl-2-azabicyclo[2.2.1]hept-6-yl)carbonyl]-D-phenylalaninamide hydrochloride (hereinafter Compound A).
(§2) After 4 days of treatment with Compound A or with vehicle, plasma samples were obtained from each rat. Plasma AGRP level was thereafter determined using an RIA Kit from Phoenix Pharmaceuticals, Inc. (Belmont, Calif.).
(§3) In a different experiment, groups of male DIO rats were treated either with a second MC4R agonist (20 mg/kg, po, b.i.d., for 4 days, n=6) or with vehicle (n=5). In this study, the specific MC4 agonist used was 4-[2-methylaminocarbonyl-4-flurorphenyl]-1-{[(3S, 4R)-1-tert-butyl-4-(2,4-difluorophenyl)-pyrrolidin-3-yl]carbonyl}piperidine (hereinafter Compound B). […] For each treatment group, plasma samples were collected after 4 days of treatment and AGRP level was measured using an RIA Kit from Phoenix Pharmaceuticals, Inc. (Belmont, Calif.).
(§4) Male DIO rats were treated either with S(+) fenflurarnine (3 mg/kg, po, b.i.d., for 4 days, n=7) or with vehicle (n=5). […] After 4 days of treatment with Compound A or with vehicle, plasma samples were obtained from each rat. Plasma AGRP level was thereafter determined using an RIA Kit from Phoenix Pharmaceuticals, Inc. (Belmont, Calif.).

Experiment [1] can be described thus: Body weight change after 4-day dosing in male DIO rats. To be noted: for BW change (g), mean: group mean. The method, then:
as §1, §2, §3, §4

Experiment [2] in a line: Body weight change after 4-day sibutramine dosing in male Sprague-Dawley rats. To be noted: sibutramine 3 mg/kg oral once daily for 4 days; mean±standard error; n=7; vehicle gained 23.6±4.16 g. The method, then: Male Sprague-Dawley rats (Charles River Laboratories, Wilmington, Mass.), which were 71 days of age at the beginning of the experiment, were treated with either vehicle alone (0.5% methyl cellulose; n=5 rats) or sibutramine (3 mg/kg of body weight in 0.5% methyl cellulose; n=7 rats). The treatment regime consisted of a single daily oral dose of the test compound every day for 4 days.
The body weight of each rat was measured before commencement of the experiment and at its conclusion. After 4 days of treatment with either test compound, plasma samples of each rat were collected for the measurement of AGRP level. […] The AGRP kit contains a synthetic human AGRP fragment (aa83-132) as the standard. […] For AGRP RIA, 100 μl rat plasma was used per assay. […] Statistical comparison is based on unpaired t test.

The mark [3] stands for this setting: Compound B 20 mg/kg po b.i.d. 4 days, n=6.
Setting [4] is: Compound B 20 mg/kg po b.i.d. 4 days, individual rats 1-6.
Setting [5] is: S(+) fenfluramine 3 mg/kg po b.i.d. 4 days, n=7.
Where [6] appears, read: S(+) fenfluramine 3 mg/kg po b.i.d. 4 days, individual rats 1-7.
Where [7] appears, read: Compound A 15 mg/kg po b.i.d. 4 days, n=7.
Setting [8] is: Compound A 15 mg/kg po b.i.d. 4 days, individual rats 1-7, hydrochloride, 15 mg/kg.

Values joined by “and” are separate entries in the source; they are usually repeats but may differ in a detail not shown here. Equal entries are not always repeated.

For `CNC(=O)c1cc(F)ccc1C1CCN(C(=O)[C@@H]2CN(C(C)(C)C)C[C@H]2c2ccc(F)cc2F)CC1` [Compound B, 4-[2-methylaminocarbonyl-4-flurorphenyl]-1-{[(3S, 4R)-1-tert-butyl-4-(2,4-difluorophenyl)-pyrrolidin-3-yl]carbonyl}piperidine], in the experiment on plasma AGRP (setting [3]), the “AGRP (pg/0.1 mL), mean” value was 48.4 pg/0.1 mL. The “AGRP (pg/0.1 mL)” value with plasma AGRP (setting [4]) was 45.6 pg/0.1 mL and 26 pg/0.1 mL and 39.8 pg/0.1 mL and 66.9 pg/0.1 mL and 47 pg/0.1 mL and 64.8 pg/0.1 mL. In addition, the “Plasma AGRP level” value in the experiment with plasma AGRP (Compound B 20 mg/kg po b.i.d. 4 days, vehicle 45.8±14) stood at 48.4±6.3 pg/100 μl plasma. Besides, the “effect on body weight (in words)” value in experiment [1] (Compound B 20 mg/kg po b.i.d. 4 days, DIO rats) is on record as “not effective at reducing body weight”. In experiment [1] (setting [3]), the “BW change (g), mean” value is reported as 17.5 g. Further, the “BW change” value in experiment [1] (setting [4]) was 25 g (2×) and 5 g and 23 g and 15 g and 12 g. Also, the body weight gained in experiment [1] (Compound B 20 mg/kg po b.i.d. 4 days, mean±standard error, vehicle gained 14.2±1.9 g) stood at 17.5 ± 3.3 g.

On to `CCN[C@@H](C)Cc1cccc(C(F)(F)F)c1` [S(+) fenfluramine, reference compound], for which, in the experiment on plasma AGRP (setting [5]), the “AGRP (pg/0.1 mL), mean” value was determined as 48.3 pg/0.1 mL. Further, the “AGRP (pg/0.1 mL)” value with plasma AGRP (setting [6]) is 39.3 pg/0.1 mL and 22.8 pg/0.1 mL and 57.8 pg/0.1 mL and 62.6 pg/0.1 mL and 94.4 pg/0.1 mL and 16.9 pg/0.1 mL and 44.6 pg/0.1 mL. Moreover, in the experiment on plasma AGRP (S(+) fenfluramine 3 mg/kg po b.i.d. 4 days, vehicle 45.8±14), the “average plasma AGRP level” value was 48.3±9.9 pg/100 μl plasma. Further, the “BW change (g), mean” value in experiment [1] (setting [5]) was -16.3 g. Also, in experiment [1] (setting [6]), the “BW change” value is −25 g and −13 g (2×) and −10 g (2×) and −15 g and −28 g. In experiment [1] (S(+) fenfluramine 3 mg/kg po b.i.d. 4 days, mean±standard error, vehicle gained 14.2±1.9 g), the body weight lost was found to be 16.3 ± 2.7 g.

On to `CC(C)CC(N(C)C)C1(c2ccc(Cl)cc2)CCC1.Cl.O` (centres unmarked) [sibutramine, N-{1-[1-(4-chlorophenyl)cyclobutyl]-3-methylbutyl}-N,N-dimethylamine hydrochloride monohydrate], for which the body weight gained in experiment [2] was determined as 10 ± 4.76 g.

Turning to “(aR)-N,N-bis(4-[(tert-butylamino)carbonyl]-4-cyclohexyl 1-{4-fluoro-N-[(2-methyl-2-azabicyclo[2.2.1]hept-6-yl)carbonyl]-D-phenylalanyl}piperidin-2-yl)-4-fluoro-N-[(2-methyl-2-azabicyclo[2.2.1]hept-6-yl)carbonyl]-D-phenylalaninamide hydrochloride [Compound A]”, in the experiment with plasma AGRP (Compound A 15 mg/kg po b.i.d. 4 days, mean±standard error), the “Plasma AGRP level” value turned out to be 36.2±2.5 pg/100 μl plasma. The “AGRP (pg/0.1 mL), mean” value with plasma AGRP (setting [7]) is 36.2 pg/0.1 mL. In addition, the “AGRP (pg/0.1 mL)” value in the experiment with plasma AGRP (setting [8]) is 35.8 pg/0.1 mL and 42.2 pg/0.1 mL and 38.1 pg/0.1 mL and 46.2 pg/0.1 mL and 33 pg/0.1 mL and 26.5 pg/0.1 mL and 31.6 pg/0.1 mL. Moreover, the “BW change (g), mean” value in experiment [1] (setting [7]) is -4.9 g. Further, the “BW change” value in experiment [1] (setting [8]) is 2 g and 1 g and −2 g and −5 g and −7 g (2×) and −16 g. Further, the body weight lost in experiment [1] (Compound A 15 mg/kg po b.i.d. 4 days, mean±standard error, vehicle gained 3.7±1.4 g) turned out to be 4.9 ± 2.3 g.
